Patent US9309242B2, “Substituted pyrido[2,3-b]pyrazines as FGFR kinase inhibitors” (priority 2011, dated 2016)

Molecular target: T1, Ba/F3-Flt3-transfected cells (Homo sapiens, UniProt P36888, cells depend on it, form not given)
T1 construct: BAF3-FLT3 (MIN IL3) pIC50; other: minus IL3
T1 sequence (P36888 1-993): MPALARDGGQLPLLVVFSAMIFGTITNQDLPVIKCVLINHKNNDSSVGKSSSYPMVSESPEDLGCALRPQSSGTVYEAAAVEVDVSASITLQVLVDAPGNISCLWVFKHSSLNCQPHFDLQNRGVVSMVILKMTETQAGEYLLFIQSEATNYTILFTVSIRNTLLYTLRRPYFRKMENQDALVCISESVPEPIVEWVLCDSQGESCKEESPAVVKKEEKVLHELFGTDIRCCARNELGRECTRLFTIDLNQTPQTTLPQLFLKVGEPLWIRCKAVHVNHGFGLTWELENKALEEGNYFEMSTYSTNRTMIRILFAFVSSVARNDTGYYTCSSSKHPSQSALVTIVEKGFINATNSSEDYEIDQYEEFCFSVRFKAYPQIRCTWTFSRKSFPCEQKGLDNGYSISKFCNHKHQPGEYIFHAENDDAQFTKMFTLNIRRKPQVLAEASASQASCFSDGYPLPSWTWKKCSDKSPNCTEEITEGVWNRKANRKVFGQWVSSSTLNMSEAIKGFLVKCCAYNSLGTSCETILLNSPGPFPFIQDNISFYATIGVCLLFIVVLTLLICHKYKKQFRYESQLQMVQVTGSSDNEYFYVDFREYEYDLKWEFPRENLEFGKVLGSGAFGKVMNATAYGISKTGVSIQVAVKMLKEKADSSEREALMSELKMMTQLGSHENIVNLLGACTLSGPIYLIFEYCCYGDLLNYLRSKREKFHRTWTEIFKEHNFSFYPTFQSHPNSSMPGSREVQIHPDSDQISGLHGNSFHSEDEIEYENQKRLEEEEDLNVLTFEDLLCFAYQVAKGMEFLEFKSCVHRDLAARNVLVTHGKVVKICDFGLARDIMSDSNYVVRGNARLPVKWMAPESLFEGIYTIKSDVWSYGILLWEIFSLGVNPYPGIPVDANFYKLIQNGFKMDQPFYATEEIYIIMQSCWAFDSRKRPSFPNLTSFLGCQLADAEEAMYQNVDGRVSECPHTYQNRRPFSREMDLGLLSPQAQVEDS
Test: Ba/F3-Flt3 (minus IL3) cellular proliferation assay, Alamar Blue
Assay type: cell-based
Protocol: Ba/F3-Flt3 (Minus IL3 or Plus IL3) (Cellular Proliferation Assay)
In a 384 well plate, 100 nl of compound dilution in DMSO was sprayed before adding 50 μl cell culture medium (phenol red free RPMI-1640, 10% FBS, 2 mM L-Glutamine and 50 μg/ml Gentamycin) containing 20000 cells per well of Ba/F3-Flt3-transfected cells. Cells were put in an incubator at 37° C. and 5% CO2. After 24 hours, 10 μl of Alamar Blue solution (0.5 mM K3Fe(CN)6, 0.5 mM K4Fe(CN)6, 0.15 mM Resazurin and 100 mM Phosphate Buffer) was added to the wells, incubated for 4 hours at 37° C. and 5% CO2 before RFU's (Relative Fluorescence Units) (ex. 540 nm., em. 590 nm.) were measured in a fluororescence plate reader. […]

| Structure (SMILES) | BAF3-FLT3 (MIN IL3) pIC50 |
| --- | --- |
| COc1cc(OC)c(F)c(N(CCCO)c2ccc3ncc(-c4cnn(C)c4)nc3n2)c1F (single isomer, unassigned) [Compound 16] | 5.18 |
| COCC(O)CN(c1cc(OC)cc(OC)c1)c1ccc2ncc(-c3cnn(C)c3)nc2n1 (centres unmarked) [Compound 7] | <5 |
| COc1cc(OC)c(F)c(N(Cc2ncccn2)c2ccc3ncc(-c4cnn(C)c4)nc3n2)c1 [Compound 9] | <5 |
| COc1cc(OC)c(F)c(N(Cc2cnccn2)c2ccc3ncc(-c4cnn(C)c4)nc3n2)c1F [Compound 10] | 5.12 |
| COc1cc(OC)c(F)c(N(CCO)c2ccc3ncc(-c4cnn(C)c4)nc3n2)c1F [Compound 20] | 5.23 |
| COc1cc(OC)cc(N(CC#Cc2ncccc2OC)c2ccc3ncc(-c4cnn(C)c4)nc3n2)c1 [Compound 26] | <5 |
| Cn1cc(-c2cnc3ccc(N(Cc4ncc[nH]4)c4cc(F)cc(F)c4)nc3n2)cn1 [Compound 27] | <5 |
| COc1cc(OC)c(F)c(N(Cc2cn(S(=O)(=O)N(C)C)cn2)c2ccc3ncc(-c4cnn(C)c4)nc3n2)c1 [Compound 36] | <5 |
| COc1cc(/N=c2\ccc3ncc(-c4cnn(C)c4)nc3n2CCNC(C)C)c(F)c(OC)c1 [Compound 37] | <5 |
| CNCCn1/c(=N/c2cc(OC)cc(OC)c2F)ccc2ncc(-c3cnn(C)c3)nc21 [Compound 38] | <5 |
| CNCCN(c1ccc2ncc(-c3cnn(C)c3)nc2n1)c1cc(OC)cc(OC)c1F [Compound 39] | <5 |
